Source: PubChem BioAssay AID330 (DTP/NCI, 2004)
Values joined by “and” are separate entries in the source; they are usually repeats but may differ in a detail not shown here. Identical values can stand only once. Inconclusive results and toxic doses are left out. How the source made its calls: active means survival T/C of 150% or more; inactive means T/C below 125% in these data. Square brackets hold non-standard residues; d marks the D form. Peptide text beside a SMILES is read from it. * marks the point of attachment. Nle = CCCC[CH](N)C(=O)O; Cbz = O=C(OCc1ccccc1)*

System: P388 leukemia ip, CD2F1 mice, survival T/C
Experiment: NCI In Vivo Anticancer Drug Screen. Data for tumor model P388 Leukemia (intraperitoneal) in CD2F1 (CDF1) mice
Conditions: endpoint: median survival time, higher = longer survival
Procedure, shortened: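 Mice carrying the transplanted tumor received test compound or vehicle. Survival was recorded in each group, and the value is the treated-group measurement divided by that of the vehicle-treated control group.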

[1] = dose: 50.0 mg/kg/injection, schedule: Q01DX005 (ip), vehicle: Klucel (hydroxypropylcellulose) (HPC)
[2] = dose: 100.0 mg/kg/injection, schedule: Q01DX005 (ip), vehicle: Klucel (hydroxypropylcellulose) (HPC)
[3] = dose: 200.0 mg/kg/injection, schedule: Q01DX005 (ip), vehicle: Klucel (hydroxypropylcellulose) (HPC)
[4] = dose: 50.0 mg/kg/injection, schedule: Q01DX009 (ip), vehicle: saline
[5] = dose: 100.0 mg/kg/injection, schedule: Q01DX009 (ip), vehicle: saline
[6] = dose: 200.0 mg/kg/injection, schedule: Q01DX009 (ip), vehicle: saline
[7] = dose: 50.0 mg/kg/injection, schedule: Q01DX005 (ip), vehicle: saline with Tween-80
[8] = dose: 100.0 mg/kg/injection, schedule: Q01DX005 (ip), vehicle: saline with Tween-80
[9] = dose: 200.0 mg/kg/injection, schedule: Q01DX005 (ip), vehicle: saline with Tween-80
[10] = dose: 30.0 mg/kg/injection, schedule: Q01DX005 (ip), vehicle: saline with Tween-80
[11] = dose: 60.0 mg/kg/injection, schedule: Q01DX005 (ip), vehicle: saline with Tween-80
[12] = dose: 120.0 mg/kg/injection, schedule: Q01DX005 (ip), vehicle: saline with Tween-80
[13] = dose: 240.0 mg/kg/injection, schedule: Q01DX005 (ip), vehicle: saline with Tween-80
[14] = dose: 60.0 mg/kg/injection, schedule: Q01DX005 (ip), vehicle: Klucel (hydroxypropylcellulose) (HPC)
[15] = dose: 120.0 mg/kg/injection, schedule: Q01DX005 (ip), vehicle: Klucel (hydroxypropylcellulose) (HPC)

Measured: T/C

C[n+]1c(-c2cccc(OCCCCCCCOc3cccc(-c4c5cc(N)ccc5c5ccc(N)cc5[n+]4C)c3)c2)c2cc(N)ccc2c2ccc(N)cc21
inactive: dose: 0.05 mg/kg/injection, schedule: Q01DX009 (ip), vehicle: water 123 % of control | dose: 25.0 micrograms/kg/injection, schedule: Q01DX009 (ip), vehicle: water 103 % of control | dose: 50.0 micrograms/kg/injection, schedule: Q01DX009 (ip), vehicle: water 118 % of control | dose: 100.0 micrograms/kg/injection, schedule: Q01DX009 (ip), vehicle: water 120 % of control | dose: 200.0 micrograms/kg/injection, schedule: Q01DX009 (ip), vehicle: water 100 % of control

O=C(OCC(Cl)(Cl)Cl)N1[C@@H]2C=C[C@@H](N1C(=O)OCC(Cl)(Cl)Cl)[C@@]13CCCC21O3 (some centres undefined)
inactive: [1] 103 % of control | [2] 105 % of control | [3] 103 % of control

COc1c(Cl)cccc1N=Cc1ccc(C=Nc2cccc(Cl)c2OC)cc1
inactive: [4] 97 % of control | [5] 90 % of control | [6] 89 % of control

NC(=O)c1oc([N+](=O)[O-])c(-c2ccccc2)c1-c1ccccc1
inactive: [7] 99 % of control | [8] 102 % of control | [9] 93 % of control

Cc1cccnc1NS(=O)(=O)c1ccccc1
inactive: dose: 100.0 mg/kg/injection, schedule: Q01DX009 (ip), vehicle: saline with Tween-80 100 % of control | dose: 200.0 mg/kg/injection, schedule: Q01DX009 (ip), vehicle: saline with Tween-80 100 % of control | dose: 400.0 mg/kg/injection, schedule: Q01DX009 (ip), vehicle: saline with Tween-80 100 % of control

NC(=O)C(NC(=O)c1ccc([N+](=O)[O-])cc1)C(N)=O
inactive: dose: 100.0 mg/kg/injection, schedule: Q04DX003 (ip), vehicle: saline 103 % of control | dose: 200.0 mg/kg/injection, schedule: Q04DX003 (ip), vehicle: saline 103 % of control | dose: 400.0 mg/kg/injection, schedule: Q04DX003 (ip), vehicle: saline 103 % of control

CCOc1c(Cc2ccccc2)c(=O)nc2c(-c3ccccc3)cncn12
inactive: [10] 101 % of control | [11] 86 % of control and 90 % of control | [12] 92 % of control | [13] 87 % of control

CN(C)c1cccc2c(S(=O)(=O)NCCCCCCCCCCCCN)cccc12
inactive: dose: 100.0 mg/kg/injection, schedule: Q01DX001 (ip), vehicle: saline + Tween-80 + alcohol 105 % of control

Cc1ccccc1C1C(C#N)C(=O)NC(=O)C1C#N (centres undefined)
inactive: dose: 50.0 mg/kg/injection, schedule: Q01DX009 (ip), vehicle: Klucel (hydroxypropylcellulose) (HPC) 102 % of control | dose: 100.0 mg/kg/injection, schedule: Q01DX009 (ip), vehicle: Klucel (hydroxypropylcellulose) (HPC) 106 % of control | dose: 200.0 mg/kg/injection, schedule: Q01DX009 (ip), vehicle: Klucel (hydroxypropylcellulose) (HPC) 110 % of control

COc1ccc(Br)cc1C(Nc1nncs1)Nc1nncs1
inactive: [10] 93 % of control | [11] 87 % of control and 89 % of control | [12] 92 % of control | [13] 90 % of control

CS(=O)(=O)OC[C@@H](O)[C@@H](O)COS(C)(=O)=O
inactive: [4] 112 % of control | dose: 100.0 mg/kg/injection, schedule: Q01DX009 (ip), vehicle: saline sonified 110 % of control | [5] 99 % of control | dose: 200.0 mg/kg/injection, schedule: Q01DX009 (ip), vehicle: saline sonified 100 % of control | [6] 99 % of control | dose: 400.0 mg/kg/injection, schedule: Q01DX009 (ip), vehicle: saline sonified 100 % of control

CC(C)n1cccc(C#N)c1=S
inactive: [1] 101 % of control | [2] 98 % of control | [3] 97 % of control

CCCCC(NC(=O)C(Cc1ccccc1)NC(=O)OCc1ccccc1)C(=O)O (stereo not drawn) (Cbz-Phe-[Nle]-OH; configuration not given here)
inactive: [7] 104 % of control | [8] 105 % of control | [9] 97 % of control

CCCCCC1OC1CC1OC1CCCCCCCC(=O)OC (centres undefined)
inactive: [1] 96 % of control | [2] 96 % of control | [3] 104 % of control

O=C1C2=C(Nc3cc([N+](=O)[O-])ccc3N2)OC1c1ccccc1 (centres undefined)
inactive: [14] 91 % of control | [15] 91 % of control | dose: 240.0 mg/kg/injection, schedule: Q01DX005 (ip), vehicle: Klucel (hydroxypropylcellulose) (HPC) 99 % of control

C=CC(=C)C1(O)c2ccccc2C(=O)N1C (centres undefined)
inactive: [14] 106 % of control | [15] 109 % of control

N=C(N)c1nn(C2OC(CO)C(O)C2O)c2nc[nH]c(=O)c12 (centres undefined)
inactive: dose: 12.5 mg/kg/injection, schedule: Q01DX005 (ip), vehicle: saline with Tween-80 121 % of control | dose: 25.0 mg/kg/injection, schedule: Q01DX005 (ip), vehicle: saline with Tween-80 124 % of control
